# Data from PubChem BioAssay (NCI).
#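 How tested: cells in 96-well plates exposed to compound for 48 hours at five concentrations. TGI denotes the concentration required for complete inhibition of growth.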
# Columns and labels:
# Assay in all cases: DTP human tumour cell line panel, 48 h
# HOP-62 NSCLC = system: HOP-62 NSCLC
# 786-0 renal = system: 786-0 renal
# SK-OV-3 ovarian = system: SK-OV-3 ovarian
# OVCAR-4 ovarian = system: OVCAR-4 ovarian
# RXF 393 renal = system: RXF 393 renal
# KM12 colon = system: KM12 colon
# MDA-N = system: MDA-N
# HL-60(TB) leukemia = system: HL-60(TB) leukemia
# NCI-H460 lung = system: NCI-H460 lung
# SK-MEL-5 melanoma = system: SK-MEL-5 melanoma
# EKVX NSCLC = system: EKVX NSCLC
structure (smiles),measurement,setting,value
CCN1CCc2sc3[nH]c(=S)n(C)c(=O)c3c2C1,TGI,HOP-62 NSCLC,> 100 µM
same,TGI,786-0 renal,> 100 µM
same,TGI,SK-OV-3 ovarian,> 100 µM
same,TGI,OVCAR-4 ovarian,> 100 µM
same,TGI,RXF 393 renal,> 100 µM
same,TGI,KM12 colon,> 100 µM
same,TGI,MDA-N,> 100 µM
same,TGI,HL-60(TB) leukemia,1.83 µM
same,TGI,NCI-H460 lung,> 100 µM
same,TGI,SK-MEL-5 melanoma,> 100 µM
same,TGI,EKVX NSCLC,> 100 µM
O=c1n(CCO)nc2n1CCCN2,TGI,HOP-62 NSCLC,> 100 µM
same,TGI,786-0 renal,> 100 µM
same,TGI,SK-OV-3 ovarian,> 100 µM
same,TGI,OVCAR-4 ovarian,> 100 µM
same,TGI,RXF 393 renal,> 100 µM
same,TGI,KM12 colon,> 100 µM
same,TGI,MDA-N,> 100 µM
same,TGI,HL-60(TB) leukemia,> 100 µM
same,TGI,NCI-H460 lung,> 100 µM
same,TGI,SK-MEL-5 melanoma,> 100 µM
same,TGI,EKVX NSCLC,> 100 µM
CC1=CC(=O)C[C@]2(C)[C@@H](O)CC(C(C)CO)C[C@@H]12 (some centres undefined),TGI,HOP-62 NSCLC,> 100 µM
same,TGI,786-0 renal,> 100 µM
same,TGI,SK-OV-3 ovarian,> 100 µM
same,TGI,OVCAR-4 ovarian,> 100 µM
same,TGI,RXF 393 renal,> 100 µM
same,TGI,KM12 colon,> 100 µM
same,TGI,MDA-N,> 100 µM
same,TGI,HL-60(TB) leukemia,> 100 µM
same,TGI,NCI-H460 lung,> 100 µM
same,TGI,SK-MEL-5 melanoma,> 100 µM
same,TGI,EKVX NSCLC,> 100 µM
COc1ccc(N=Nc2ccc3oc(=O)c(C(=O)Nc4ccc(OC)cc4)cc3c2)cc1,TGI,HOP-62 NSCLC,30.3 µM
same,TGI,786-0 renal,44.5 µM
same,TGI,SK-OV-3 ovarian,83.5 µM
same,TGI,OVCAR-4 ovarian,75.3 µM
same,TGI,RXF 393 renal,> 100 µM
same,TGI,KM12 colon,33.5 µM
same,TGI,MDA-N,> 100 µM
same,TGI,HL-60(TB) leukemia,30.8 µM
same,TGI,NCI-H460 lung,79.4 µM
same,TGI,SK-MEL-5 melanoma,33.3 µM
same,TGI,EKVX NSCLC,97.7 µM
Cc1ccc(-n2cc(-c3ccc(Cl)cc3)c3c(NNC(=S)NCc4ccccc4)ncnc32)cc1,TGI,HOP-62 NSCLC,85.4 µM
same,TGI,786-0 renal,51.1 µM
same,TGI,SK-OV-3 ovarian,82 µM
same,TGI,OVCAR-4 ovarian,> 100 µM
same,TGI,RXF 393 renal,56.4 µM
same,TGI,KM12 colon,20 µM
same,TGI,MDA-N,> 100 µM
same,TGI,HL-60(TB) leukemia,> 100 µM
same,TGI,NCI-H460 lung,12.4 µM
same,TGI,SK-MEL-5 melanoma,19.5 µM
same,TGI,EKVX NSCLC,73.5 µM
CC(C)(C)C(=O)C(C#N)C(=O)C(C)(C)C,TGI,HOP-62 NSCLC,> 100 µM
same,TGI,786-0 renal,> 100 µM
same,TGI,SK-OV-3 ovarian,> 100 µM
same,TGI,OVCAR-4 ovarian,> 100 µM
same,TGI,RXF 393 renal,> 100 µM
same,TGI,KM12 colon,> 100 µM
same,TGI,MDA-N,> 100 µM
same,TGI,HL-60(TB) leukemia,> 100 µM
same,TGI,NCI-H460 lung,> 100 µM
same,TGI,SK-MEL-5 melanoma,> 100 µM
same,TGI,EKVX NSCLC,> 100 µM
CN(C)CCCNc1ccc2nnn3c4ccc([N+](=O)[O-])cc4c(=O)c1c23,TGI,HOP-62 NSCLC,8.51 µM
same,TGI,786-0 renal,13 µM
same,TGI,SK-OV-3 ovarian,16 µM
same,TGI,OVCAR-4 ovarian,3.92 µM
same,TGI,RXF 393 renal,4.25 µM
same,TGI,KM12 colon,4.53 µM
same,TGI,MDA-N,15.9 µM
same,TGI,HL-60(TB) leukemia,11.3 µM
same,TGI,NCI-H460 lung,1.57 µM
same,TGI,SK-MEL-5 melanoma,5.97 µM
same,TGI,EKVX NSCLC,12.9 µM
COc1cccc(C(=O)C(O)c2cccc(OC)c2OC)c1OC (centres undefined),TGI,HOP-62 NSCLC,> 100 µM
same,TGI,786-0 renal,> 100 µM
same,TGI,SK-OV-3 ovarian,> 100 µM
same,TGI,OVCAR-4 ovarian,> 100 µM
same,TGI,RXF 393 renal,> 100 µM
same,TGI,KM12 colon,> 100 µM
same,TGI,MDA-N,> 100 µM
same,TGI,HL-60(TB) leukemia,> 100 µM
same,TGI,NCI-H460 lung,> 100 µM
same,TGI,SK-MEL-5 melanoma,> 100 µM
same,TGI,EKVX NSCLC,> 100 µM
CC(C)(C)OC(=O)N1CC(COS(C)(=O)=O)c2ccc(O)cc21 (centres undefined),TGI,HOP-62 NSCLC,8.05 µM
same,TGI,786-0 renal,11 µM
same,TGI,SK-OV-3 ovarian,8.88 µM
same,TGI,OVCAR-4 ovarian,3.13 µM
same,TGI,RXF 393 renal,0.924 µM
same,TGI,KM12 colon,7.16 µM
same,TGI,MDA-N,3.98 µM
same,TGI,HL-60(TB) leukemia,3.98 µM
same,TGI,NCI-H460 lung,5.45 µM
same,TGI,SK-MEL-5 melanoma,2.92 µM
same,TGI,EKVX NSCLC,4.59 µM
